Where “and” joins values, the source holds several entries; their conditions need not be identical. Equal values may be shown once.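 The compound was tested at five concentrations on cells cultured in 96-well plates, with a 48-hour exposure period. GI50 is the concentration that inhibits growth by half. Definition used: TGI = concentration required for complete inhibition of growth.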
What was measured:
Assay in all cases: NCI tumour cell line growth inhibition, 48 h
CAKI-1 renal = system: CAKI-1 renal
A549 NSCLC = system: A549 NSCLC
LOX IMVI melanoma = system: LOX IMVI melanoma
IGROV1 ovarian = system: IGROV1 ovarian
CCRF-CEM leukemia = system: CCRF-CEM leukemia
ACHN renal = system: ACHN renal
NCI-H522 lung = system: NCI-H522 lung
UACC-257 melanoma = system: UACC-257 melanoma
A498 renal = system: A498 renal
HOP-92 NSCLC = system: HOP-92 NSCLC

Compound | GI50 (CAKI-1 renal) [µM] | TGI (CAKI-1 renal) [µM] | GI50 (A549 NSCLC) [µM] | TGI (A549 NSCLC) [µM] | GI50 (LOX IMVI melanoma) [µM] | TGI (LOX IMVI melanoma) [µM] | GI50 (IGROV1 ovarian) [µM] | TGI (IGROV1 ovarian) [µM] | GI50 (CCRF-CEM leukemia) [µM] | TGI (CCRF-CEM leukemia) [µM] | GI50 (ACHN renal) [µM] | TGI (ACHN renal) | GI50 (NCI-H522 lung) [µM] | TGI (NCI-H522 lung) [µM] | GI50 (UACC-257 melanoma) [µM] | TGI (UACC-257 melanoma) [µM] | GI50 (A498 renal) [µM] | TGI (A498 renal) [µM] | GI50 (HOP-92 NSCLC) [µM] | TGI (HOP-92 NSCLC) [µM]
C[C@H]1[C@H](C)CC[C@]2(CO)CC[C@]3(C)C(=CC[C@@H]4[C@@]5(C)CCCNC(C)(C)[C@@H]5CC[C@]43C)[C@H]12 | 1.62 | 3.23 | 1.74 | 3.28 | 1.59 | 3.05 | 1.85 | 3.72 | 1.74 | 3.93 | 1.69 | 3.06 µM | 1.71 | 3.32 | 1.95 | 3.7 | 1.63 | 3.29 | 1.52 | 3.19
Cc1cc(O)c(C(C)C)cc1S(=O)(=O)O (tested in a mixture with another compound) | 0.435 | 10.8 | 0.372 | – | 0.483 | – | 0.554 | – | 0.323 | – | 1.04 | > 100 µM and 10.9 µM | 0.238 | – | 0.963 | – | 0.244 | 2.16 | 0.188 | 1.66
CN[C@@H](C)C(=O)N[C@H](C(=O)N1CCC[C@H]1C(=O)Nc1snnc1-c1ccccc1)C1CCCCC1 | 68 | > 100 | 71.6 | > 100 | 35.3 | > 83.3 | 76.9 | > 100 | 32.3 | > 100 | 52.7 | > 100 µM | 18.3 | 53.4 | 0.405 | 25.5 | 19.5 | 57.3 | 3.06 | 27.7
COc1ccc2nc3cccc([N+](=O)[O-])c3c(NCCCCCC(=O)O)c2c1 | 0.0365 | 0.284 | 0.12 | 2.17 | 0.171 | 0.487 | 0.231 | 1.16 | 0.0397 | 0.302 | 0.0562 | 0.582 µM | 0.0363 | 0.101 | 0.257 | 0.926 | 1.87 | 4.28 | 0.0878 | 0.456
Cc1cc2c(cc1C)N(C(=O)CCl)CC(=O)N2 | 1.84 | 3.52 | 8.23 | 26.7 | 0.858 | 4.85 | 2.22 | 4.45 | 2.01 | 5.49 | 1.82 | 3.24 µM | 0.568 | 1.97 | 4.83 | 18.5 | 3.5 | 18.2 | 1.59 | 3.93
CN(O)c1nc(N(C)O)nc(N2CCOCC2)n1 | 1.08 | > 100 | 2.94 | > 100 | 1.67 | > 100 | 2.27 | > 100 | 0.793 | > 100 | 1.1 | > 100 µM | 4.03 | > 100 | 5.57 | 92.2 | 14.9 | > 100 | 8.77 | > 100
CC(C)[C@H](N)C(=O)N1CCC[C@H]1B(O)O | > 100 | > 100 | > 100 | > 100 | > 100 | > 100 | > 100 | > 100 | > 100 | > 100 | > 100 | > 100 µM | > 100 | > 100 | > 100 | > 100 | > 100 | > 100 | > 100 | > 100
COC1CC(OS(=O)(=O)c2ccc([N+](=O)[O-])cc2)C(OC(=O)c2ccccc2)C(C)O1 (stereo unspecified) | – | > 100 | – | > 100 | – | > 100 | – | > 100 | – | > 100 | – | > 100 µM | – | > 100 | – | > 100 | – | > 100 | – | > 100
C#Cc1c(F)ccc2cc(O)cc(-c3ncc4c(N5CC6CCC(C5)N6)nc(OC[C@@]56CCCN5C[C@H](F)C6)nc4c3F)c12 | 17.5 | 35.6 | 10.9 | 45.2 | 15.5 | 41.9 | 13.9 | 29.9 | 8.21 | 29.1 | > 39.4 | > 53.8 µM | 14.5 | 31.3 | 18.1 | 35.1 | 15.7 | 34.2 | 4.01 | 16.5
O=[N+]([O-])c1cc(C(F)(F)F)cc([N+](=O)[O-])c1CCl | – | 7.37 | – | 24.7 | – | 0.274 | – | 6.09 | – | 0.722 | – | 27.9 µM | – | 0.812 | – | 10.2 | – | 38 | – | 19.1
CCN(CC)CCCCNc1c2ccccc2[n+](C)c2c1[nH]c1ccccc12 | 2.05 | 14.4 | 0.0558 | 33.2 | 0.346 | 2.03 | 0.473 | 7.4 | 0.59 | 3.39 | 2.27 | > 47.3 µM | 0.0796 | 0.217 | 0.84 | 2.4 | 0.613 | 2.39 | – | 0.28
COc1cc2c(c(OC)c1OC)-c1ccc(SC)c(=O)cc1C(CO)C2 (stereo unspecified) | < 0.01 | > 100 | < 0.01 | > 100 | < 0.01 | 19.8 | < 0.01 | > 100 | < 0.01 | 2.27 | < 0.01 | > 100 µM | – | 0.271 | 3.45 | > 100 | < 0.01 | – | < 0.01 | > 100

From PubChem BioAssay (NCI)
